Measurements as given in patent US11548868B2, “Heterocyclic compounds, compositions comprising heterocyclic compound, and methods of use thereof” (JS INNOPHARM (SHANGHAI) LTD, priority 2017, dated 2023).

Molecular target: T1, TDO2 in A172 cancer cells (Homo sapiens, UniProt P48775)
T1 construct: endogenous in cells; host or cells: A172 cancer cells
Assay: TDO2 Cellular Assay (kynurenine production in A172 cancer cells)
Format: cell-based
Conditions: L-Trp 1 mM, 24 hours incubation, kynurenine at 490 nm
Procedure: A172 cancer cells (3×10^4 per well) in 85 μL DMEM medium containing 10% FBS were seeded in a 96-well plate and incubated at 95% humidity and 5% CO2 at 37° C. for overnight. On the next day, L-Trp solution (10 μL, 1 mM final concentration) and serial dilutions of the test compounds and DMEM medium resulting in a total final volume of 100 μL each well. The test compounds were dissolved in DMSO and successively diluted with pH7.5 butter (with final DMSO concentration of 0.25%) resulting in final concentrations of the test compounds ranging from 0 to 25 μM (0, 2.5, 7.5, 25, 75, 250, 750, 2500, 7500, & 25000 nM). After 24 hours of incubation, 70 uL of the supernatant per well was transferred to a new 96 well plate. 8 μL of trichloroacetic acid (6.1 N) was mixed into each well and incubated at 50° C. for 30 min to hydrolyze N-formylkynurenine to kynurenine. The reaction mixture was then centrifuged for 10 min at 2500 RPM to remove sediments. 50 μL of the supernatant per well was transferred to another 96 well plate and mixed with 50 μL of 2% (w/v) p-dimethylaminobenzaldehyde in acetic acid. The yellow color derived from kynurenine was measured at 490 nm using a microplate reader. Percent inhibition of the test compounds was determined by measuring the decrease in kynurenine as compared to the control of DMSO vehicle, which was calculated by formula of (WC−WT)/WC, where WC is the mean absorbance of the control well minus blank well; WT is the mean absorbance of the test well minus the blank well. Data was analyzed by GraphPad Prism 5 and the IC50 values were obtained by non-linear regression.
The IC50 values of for Compounds disclosed are listed in Table 2, A′: ≤0.5 μM; B′: >0.5 μM and ≤1 μM; C′: >1.0 μM and ≤5 uM; and D′: >5 μM.

T1 sequence (P48775 whole entry): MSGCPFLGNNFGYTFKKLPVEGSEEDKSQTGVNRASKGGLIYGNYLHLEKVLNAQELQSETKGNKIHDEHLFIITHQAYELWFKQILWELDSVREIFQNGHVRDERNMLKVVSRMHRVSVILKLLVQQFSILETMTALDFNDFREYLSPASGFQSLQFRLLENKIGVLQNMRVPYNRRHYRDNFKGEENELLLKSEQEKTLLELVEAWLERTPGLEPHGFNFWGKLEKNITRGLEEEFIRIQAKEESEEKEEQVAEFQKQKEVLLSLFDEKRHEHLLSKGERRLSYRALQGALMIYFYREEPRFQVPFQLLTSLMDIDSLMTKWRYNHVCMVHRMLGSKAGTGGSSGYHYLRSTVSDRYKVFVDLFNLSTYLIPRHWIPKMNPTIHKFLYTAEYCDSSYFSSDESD

| Compound | IC50 |
| --- | --- |
| O=S(=O)(N[C@H]1[C@@H]2C[C@@](O)(c3cc(Cl)cc4[nH]ncc34)C[C@@H]21)C1CC1 [Example 73, N-((1R,3r,5S,6r)-3-(6-chloro-1H-indazol-4-yl)-3-hydroxybicyclo[3.1.0]hexan-6-yl)cyclopropanesulfonamide] | ≤ 500 nM |
| N#Cc1ccc(S(=O)(=O)N2C[C@H]3CN(c4cc(Cl)cc5[nH]ncc45)C[C@H]3C2)cc1 [Example 33, 4-(((3aR,6aS)-5-(6-chloro-1H-indazol-4-yl)hexahydropyrrolo[3,4-c]pyrrol-2(1H)-yl)sulfonyl)benzonitrile] | > 5000 nM |
| O=C([C@H]1CC[C@H](O)CC1)N1C[C@@H]2C[C@@](O)(c3cc(Cl)cc4[nH]ncc34)C[C@@H]2C1 [Example 66, ((3aR,5R,6aS)-5-(6-chloro-1H-indazol-4-yl)-5-hydroxyhexahydrocyclopenta[c]pyrrol-2(1H)-yl)((1r,4R)-4-hydroxycyclohexyl)methanone] | ≤ 500 nM |
| O=C(N[C@H]1[C@@H]2C[C@@](O)(c3cc(Cl)cc4[nH]ncc34)C[C@@H]21)C1CC1 [Example 76, N-((1R,3r,5S,6r)-3-(6-chloro-1H-indazol-4-yl)-3-hydroxybicyclo[3.1.0]hexan-6-yl)cyclopropanecarboxamide] | ≤ 500 nM |
| CCC(=O)N[C@H]1[C@@H]2C[C@@](O)(c3cc(Cl)cc4[nH]ncc34)C[C@@H]21 [Example 82, N-((1R,3r,5S,6r)-3-(6-chloro-1H-indazol-4-yl)-3-hydroxybicyclo[3.1.0]hexan-6-yl)propionamide] | ≤ 500 nM |
| CC(C)OC(=O)N[C@H]1[C@@H]2C[C@@](O)(c3cc(Cl)cc4[nH]ncc34)C[C@@H]21 [Example 86, isopropyl ((1R,3r,5S,6r)-3-(6-chloro-1H-indazol-4-yl)-3-hydroxybicyclo[3.1.0]hexan-6-yl)carbamate] | ≤ 500 nM |
| CC(C)C(=O)N[C@H]1[C@@H]2C[C@@](O)(c3cc(Cl)cc4[nH]ncc34)C[C@@H]21 [Example 92, N-((1R,3r,5S,6r)-3-(6-chloro-1H-indazol-4-yl)-3-hydroxybicyclo[3.1.0]hexan-6-yl)isobutyramide] | ≤ 500 nM |
| O[C@@]1(c2cc(Cl)cc3[nH]ncc23)C[C@H]2CCC[C@H]2C1 [Example 30, (2r,3aR,6aS)-2-(6-chloro-1H-indazol-4-yl)octahydropentalen-2-ol] | ≤ 500 nM |
| O=S(=O)(N[C@H]1[C@@H]2C[C@@](O)(c3cc(Cl)cc4[nH]ncc34)C[C@@H]21)C1CCCC1 [Example 74, N-((1R,3r,5S,6r)-3-(6-chloro-1H-indazol-4-yl)-3-hydroxybicyclo[3.1.0]hexan-6-yl)cyclopentanesulfonamide] | ≤ 500 nM |
| CCOC(=O)N[C@H]1[C@@H]2C[C@@](O)(c3cc(Cl)cc4[nH]ncc34)C[C@@H]21 [Example 81, ethyl ((1R,3r,5S,6r)-3-(6-chloro-1H-indazol-4-yl)-3-hydroxybicyclo[3.1.0]hexan-6-yl)carbamate] | ≤ 500 nM |
| CC1(C)C2CN(c3cc(Cl)cc4[nH]ncc34)CC2CN1S(=O)(=O)c1ccc(C#N)cc1 (stereo not shown) [Example 26, 4-(5-(6-chloro-1H-indazol-4-yl)-1,1-dimethylhexahydropyrrolo[3,4-c]pyrrol-2(1H)-ylsulfonyl)benzonitrile] | 1000 to 5000 nM |
| O=S(=O)(N[C@H]1[C@@H]2C[C@@](O)(c3cc(Cl)cc4[nH]ncc34)C[C@@H]21)C1CCCCC1 [Example 78, N-((1R,3r,5S,6r)-3-(6-chloro-1H-indazol-4-yl)-3-hydroxybicyclo[3.1.0]hexan-6-yl)cyclohexanesulfonamide] | ≤ 500 nM |
| CCS(=O)(=O)N[C@H]1[C@@H]2C[C@@](O)(c3cc(Cl)cc4[nH]ncc34)C[C@@H]21 [Example 71, N-((1R,3r,5S,6r)-3-(6-chloro-1H-indazol-4-yl)-3-hydroxybicyclo[3.1.0]hexan-6-yl)ethanesulfonamide] | ≤ 500 nM |
| O=C(N[C@H]1[C@@H]2C[C@@](O)(c3cc(Cl)cc4[nH]ncc34)C[C@@H]21)C1CCC1 [Example 84, N-((1R,3r,5S,6r)-3-(6-chloro-1H-indazol-4-yl)-3-hydroxybicyclo[3.1.0]hexan-6-yl)cyclobutanecarboxamide] | ≤ 500 nM |
| O=C(C1CCOCC1)N1C[C@@H]2C[C@@](O)(c3cc(Cl)cc4[nH]ncc34)C[C@@H]2C1 [Example 88, ((3aR,5r,6aS)-5-(6-chloro-1H-indazol-4-yl)-5-hydroxyhexahydrocyclopenta[c]pyrrol-2(1H)-yl)(tetrahydro-2H-pyran-4-yl)methanone] | ≤ 500 nM |
| O=C(N[C@H]1[C@@H]2C[C@@](O)(c3cc(Cl)cc4[nH]ncc34)C[C@@H]21)C1CCCC1 [Example 79, N-((1R,3r,5S,6r)-3-(6-chloro-1H-indazol-4-yl)-3-hydroxybicyclo[3.1.0]hexan-6-yl)cyclopentanecarboxamide] | ≤ 500 nM |

Now from value to molecule:

| IC50 | Compound |
| --- | --- |
| ≤ 500 nM | CC(C)C(=O)N1C[C@@H]2C[C@@](O)(c3cc(Cl)cc4[nH]ncc34)C[C@@H]2C1 [Example 65, 1-((3aR,5r,6aS)-5-(6-chloro-1H-indazol-4-yl)-5-hydroxyhexahydrocyclopenta[c]pyrrol-2(1H)-yl)-2-methylpropan-1-one] |
| > 5000 nM | CC1(C)[C@H]2CN(c3c(C(F)(F)F)ccn4cncc34)C[C@H]2CN1S(C)(=O)=O (racemic) [Example 57, Racemic-8-((3aR,6aS)-4,4-dimethyl-5-(methylsulfonyl)hexahydropyrrolo[3,4-c]pyrrol-2(1H)-yl)-7-(trifluoromethyl)imidazo[1,5-a]pyridine] |
| ≤ 500 nM | O=C(C1CCOC1)N1C[C@@H]2C[C@@](O)(c3cc(Cl)cc4[nH]ncc34)C[C@@H]2C1 (stereo partly drawn) [Example 68, ((3aR,5r,6aS)-5-(6-chloro-1H-indazol-4-yl)-5-hydroxyhexahydrocyclopenta[c]pyrrol-2(1H)-yl)(tetrahydrofuran-3-yl)methanone] |
| ≤ 500 nM | COC(=O)N1C[C@@H]2C[C@@](O)(c3cc(Cl)cc4[nH]ncc34)C[C@@H]2C1 [Example 67, (3aR,5r,6aS)-methyl 5-(6-chloro-1H-indazol-4-yl)-5-hydroxyhexahydrocyclopenta[c]pyrrole-2(1H)-carboxylate] |
| ≤ 500 nM | O=C(CC1CC1)N1C[C@@H]2C[C@@](O)(c3cc(Cl)cc4[nH]ncc34)C[C@@H]2C1 [Example 69, 1-((3aR,5r,6aS)-5-(6-chloro-1H-indazol-4-yl)-5-hydroxyhexahydrocyclopenta[c]pyrrol-2(1H)-yl)-2-cyclopropylethanone] |
| > 5000 nM | CC(=O)N1C[C@H]2C[C@@H](c3cc(C(F)(F)F)cn4cncc34)C[C@H]2C1 [Example 4, 1-((3aR,5r,6aS)-5-(6-(trifluoromethyl)imidazo[1,5-a]pyridin-8-yl)hexahydrocyclopenta[c]pyrrol-2(1H)-yl)ethanone] |
| ≤ 500 nM | O=C(C1CCCC1)N1C[C@@H]2C[C@@](O)(c3cc(Cl)cc4[nH]ncc34)C[C@@H]2C1 [Example 59, ((3aR,5r,6aS)-5-(6-chloro-1H-indazol-4-yl)-5-hydroxyhexahydrocyclopenta[c]pyrrol-2(1H)-yl)(cyclopentyl)methanone] |
| ≤ 500 nM | CCC(=O)N1C[C@@H]2C[C@@](O)(c3cc(Cl)cc4[nH]ncc34)C[C@@H]2C1 [Example 70, 1-((3aR,5r,6aS)-5-(6-chloro-1H-indazol-4-yl)-5-hydroxyhexahydrocyclopenta[c]pyrrol-2(1H)-yl)propan-1-one] |
| 1000 to 5000 nM | CC1(C)[C@H]2CN(c3cc(Cl)cn4cncc34)C[C@H]2CN1S(C)(=O)=O (racemic) [Example 49, Racemic-6-chloro-8-((3aR,6aS)-4,4-dimethyl-5-(methylsulfonyl)hexahydropyrrolo[3,4-c]pyrrol-2(1H)-yl)imidazo[1,5-a]pyridine] |
| > 5000 nM | N#Cc1ccc(C(=O)N2C[C@@H]3CN(c4cc(Cl)cc5[nH]ncc45)C[C@@H]3C2)cc1 [Example 34, 4-((3aR,6aS)-5-(6-chloro-1H-indazol-4-yl)octahydropyrrolo[3,4-c]pyrrole-2-carbonyl)benzonitrile] |
| > 5000 nM | CC(=O)N1C[C@@H]2CN(c3c(C(F)(F)F)ccn4cncc34)C[C@@H]2C1(C)C (racemic) [Example 58, Racemic-1-((3aS,6aR)-1,1-dimethyl-5-(7-(trifluoromethyl)imidazo[1,5-a]pyridin-8-yl)hexahydropyrrolo[3,4-c]pyrrol-2(1H)-yl)ethanone] |
| ≤ 500 nM | CC(C)OC(=O)N1C[C@@H]2C[C@@](O)(c3cc(Cl)cc4[nH]ncc34)C[C@@H]2C1 [Example 61, (3aR,5r,6aS)-isopropyl 5-(6-chloro-1H-indazol-4-yl)-5-hydroxyhexahydrocyclopenta[c]pyrrole-2(1H)-carboxylate] |
